Source: paper PMC10518255, “A first-in-class pan-lysyl oxidase inhibitor impairs stromal remodeling and enhances gemcitabine response and survival in pancreatic cancer” (Nature Cancer, 2023)
Where two headings read alike, the source gives them in different places.

Molecular target: T1, LOXL2 (Homo sapiens, UniProt Q9Y4K0)
T1 sequence (Q9Y4K0 26-774): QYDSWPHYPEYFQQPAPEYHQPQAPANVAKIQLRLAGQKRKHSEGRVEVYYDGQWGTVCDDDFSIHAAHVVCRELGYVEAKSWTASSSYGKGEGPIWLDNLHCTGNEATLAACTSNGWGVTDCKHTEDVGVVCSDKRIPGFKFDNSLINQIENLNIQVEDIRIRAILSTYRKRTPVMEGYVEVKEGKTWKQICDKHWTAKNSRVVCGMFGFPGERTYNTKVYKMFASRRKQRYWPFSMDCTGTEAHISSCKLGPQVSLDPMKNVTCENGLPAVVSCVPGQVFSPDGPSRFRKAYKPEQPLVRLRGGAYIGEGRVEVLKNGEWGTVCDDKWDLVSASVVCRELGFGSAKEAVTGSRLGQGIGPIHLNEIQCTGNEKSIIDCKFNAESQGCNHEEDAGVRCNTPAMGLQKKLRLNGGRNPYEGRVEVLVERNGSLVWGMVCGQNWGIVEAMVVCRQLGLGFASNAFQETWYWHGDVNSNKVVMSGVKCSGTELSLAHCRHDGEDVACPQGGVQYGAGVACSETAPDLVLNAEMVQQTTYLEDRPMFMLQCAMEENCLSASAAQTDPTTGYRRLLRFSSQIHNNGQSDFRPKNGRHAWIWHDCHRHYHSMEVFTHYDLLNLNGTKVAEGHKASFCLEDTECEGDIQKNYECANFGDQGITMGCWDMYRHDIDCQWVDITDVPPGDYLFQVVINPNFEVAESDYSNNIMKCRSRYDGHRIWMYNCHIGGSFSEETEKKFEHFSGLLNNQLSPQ
Test: Time-dependent inhibition with pre-incubation 0-240 min (Fig. 2e)
Format: biochemical
Details: for remaining activity at 30 µM: log conc -4.52288; for remaining activity at 30 µM / remaining activity at 10 µM / remaining activity at 3.333 µM / remaining activity at 1.111 µM / remaining activity at 0.3704 µM / remaining activity at 0.12346 µM / remaining activity at 0.04115 µM / remaining activity at 0.013717 µM / remaining activity at 0.004572 µM / remaining activity at 0.001524 µM / remaining activity at 0.0005081 µM / remaining activity at 0.0001694 µM: read-out: LOXL2 specific activity; for remaining activity at 10 µM: log conc -5; for remaining activity at 3.333 µM: log conc -5.47712; for remaining activity at 1.111 µM: log conc -5.95424; for remaining activity at 0.3704 µM: log conc -6.43136; for remaining activity at 0.12346 µM: log conc -6.90849; for remaining activity at 0.04115 µM: log conc -7.38561; for remaining activity at 0.013717 µM: log conc -7.86273; for remaining activity at 0.004572 µM: log conc -8.33985; for remaining activity at 0.001524 µM: log conc -8.81697; for remaining activity at 0.0005081 µM: log conc -9.29409; for remaining activity at 0.0001694 µM: log conc -9.77121
Description: Data are presented as mean ± s.d. […] Data presented as mean ± s.d. […] Source data TEXT PRINTED IN THE PICTURE: (b) PXS-5505: Recombinant DAO IC50 (nM): >30,000; Recombinant SSAO/VAP1 IC50 (nM): >30,000; Recombinant MAO-A IC50 (nM): >30,000; Recombinant MAO-B IC50 (nM): >30,000 | (f) PXS-5505: Fibroblast LOX IC50 (nM): 4,930; Recombinant LOXL-1 IC50 (nM): 1,590; Recombinant LOXL-2 IC50 (nM): 570; Recombinant LOXL-3 IC50 (nM): 1,800; Recombinant LOXL-4 IC50 (nM): 190
Similar to other fluoroallylamine-based amine oxidase inhibitors, the mode of inhibition is assumed to be a two-step mechanism (Fig. 2c), with PXS-5505 reacting with the unique LTQ cofactor found within the active site. The fluoroallylamine facilitates the formation of a covalent, irreversible bond. […] Furthermore, in jump dilution experiments, there is no significant recovery of activity following rapid dilution (LOXL1 (5 ± 5% recovery, n = 4), LOXL2 (7 ± 1.2% recovery, n = 3) and LOXL3 (11 ± 2% recovery, n = 3)).

With `Cl.Cl.NC/C=C(\F)CS(=O)(=O)c1cccc2cccnc12.O` [PXS-5505, (Z)-3-fluoro-4-(quinolin-8-ylsulfonyl)but-2-en-1-amine dihydrochloride monohydrate] the remaining activity at 30 µM (0.25 h, pre-incubation 15 min) was 1.28%, the remaining activity at 10 µM (0.25 h, pre-incubation 15 min) was 4.38% and the remaining activity at 3.333 µM (0.25 h, pre-incubation 15 min) was 16%. The remaining activity at 1.111 µM (0.25 h, pre-incubation 15 min) was 38.5%, the remaining activity at 0.3704 µM (0.25 h, pre-incubation 15 min) was 64% and the remaining activity at 0.12346 µM (0.25 h, pre-incubation 15 min) was 86.7%. It also gave a remaining activity at 0.04115 µM (0.25 h, pre-incubation 15 min) of 93.6%, a remaining activity at 0.013717 µM (0.25 h, pre-incubation 15 min) of 96.4% and a remaining activity at 0.004572 µM (0.25 h, pre-incubation 15 min) of 99.2%. It also gave a remaining activity at 0.001524 µM (0.25 h, pre-incubation 15 min) of 98.4%, a remaining activity at 0.0005081 µM (0.25 h, pre-incubation 15 min) of 97.8% and a remaining activity at 0.0001694 µM (0.25 h, pre-incubation 15 min) of 102%. It also gave a remaining activity at 30 µM (0.5 h, pre-incubation 30 min) of -0.266%, a remaining activity at 10 µM (0.5 h, pre-incubation 30 min) of -0.0903% and a remaining activity at 3.333 µM (0.5 h, pre-incubation 30 min) of 4.21%. The remaining activity at 1.111 µM (0.5 h, pre-incubation 30 min) was 17.3%, the remaining activity at 0.3704 µM (0.5 h, pre-incubation 30 min) was 43.6% and the remaining activity at 0.12346 µM (0.5 h, pre-incubation 30 min) was 72.5%. The remaining activity at 0.04115 µM (0.5 h, pre-incubation 30 min) was 87.7%, the remaining activity at 0.013717 µM (0.5 h, pre-incubation 30 min) was 93.2% and the remaining activity at 0.004572 µM (0.5 h, pre-incubation 30 min) was 96.3%. For the same compound, the remaining activity at 0.001524 µM (0.5 h, pre-incubation 30 min) was 109%, the remaining activity at 0.0005081 µM (0.5 h, pre-incubation 30 min) was 99.4% and the remaining activity at 0.0001694 µM (0.5 h, pre-incubation 30 min) was 103%. It also gave a remaining activity at 30 µM (1 h, pre-incubation 60 min) of -0.646%, a remaining activity at 10 µM (1 h, pre-incubation 60 min) of 0.037% and a remaining activity at 3.333 µM (1 h, pre-incubation 60 min) of 1.01%. It also gave a remaining activity at 1.111 µM (1 h, pre-incubation 60 min) of 5.82%, a remaining activity at 0.3704 µM (1 h, pre-incubation 60 min) of 23.2% and a remaining activity at 0.12346 µM (1 h, pre-incubation 60 min) of 62.4%. The remaining activity at 0.04115 µM (1 h, pre-incubation 60 min) was 86.9%, the remaining activity at 0.013717 µM (1 h, pre-incubation 60 min) was 97.3% and the remaining activity at 0.004572 µM (1 h, pre-incubation 60 min) was 101%. The remaining activity at 0.001524 µM (1 h, pre-incubation 60 min) was 104%, the remaining activity at 0.0005081 µM (1 h, pre-incubation 60 min) was 104% and the remaining activity at 0.0001694 µM (1 h, pre-incubation 60 min) was 106%. The remaining activity at 30 µM (2 h, pre-incubation 120 min) was -0.278%, the remaining activity at 10 µM (2 h, pre-incubation 120 min) was 1.09% and the remaining activity at 3.333 µM (2 h, pre-incubation 120 min) was 1.27%. For the same compound, the remaining activity at 1.111 µM (2 h, pre-incubation 120 min) was 2.05%, the remaining activity at 0.3704 µM (2 h, pre-incubation 120 min) was 7.04% and the remaining activity at 0.12346 µM (2 h, pre-incubation 120 min) was 36.3%. It also gave a remaining activity at 0.04115 µM (2 h, pre-incubation 120 min) of 69.5%, a remaining activity at 0.013717 µM (2 h, pre-incubation 120 min) of 87.9% and a remaining activity at 0.004572 µM (2 h, pre-incubation 120 min) of 97.9%. For the same compound, the remaining activity at 0.001524 µM (2 h, pre-incubation 120 min) was 102%, the remaining activity at 0.0005081 µM (2 h, pre-incubation 120 min) was 102% and the remaining activity at 0.0001694 µM (2 h, pre-incubation 120 min) was 103%. The remaining activity at 30 µM (4 h, pre-incubation 240 min) was -0.548%, the remaining activity at 10 µM (4 h, pre-incubation 240 min) was 0.438% and the remaining activity at 3.333 µM (4 h, pre-incubation 240 min) was 0.0615%. For the same compound, the remaining activity at 1.111 µM (4 h, pre-incubation 240 min) was 0.566%, the remaining activity at 0.3704 µM (4 h, pre-incubation 240 min) was 1.17% and the remaining activity at 0.12346 µM (4 h, pre-incubation 240 min) was 14.1%. The remaining activity at 0.04115 µM (4 h, pre-incubation 240 min) was 45.6%, the remaining activity at 0.013717 µM (4 h, pre-incubation 240 min) was 71.8% and the remaining activity at 0.004572 µM (4 h, pre-incubation 240 min) was 91.6%. It also gave a remaining activity at 0.001524 µM (4 h, pre-incubation 240 min) of 95.6%, a remaining activity at 0.0005081 µM (4 h, pre-incubation 240 min) of 101% and a remaining activity at 0.0001694 µM (4 h, pre-incubation 240 min) of 102%. The “time-dependent inhibition of LOXL2 specific activity” value (pre-incubation time 0–240 min) was “increased potency with increased pre-incubation time”.
